# Assay results published in patent US20250255298A1, “PENETRATION PROMOTER” (IBIDEN CO., LTD., priority 2023, published 2025).
# How the values were obtained:
# [1] = indicated as common logarithmic value Log Kow or Log P; cited from earlier work
# [2] = system: Rice (variety: Nipponbare) leaves; test: Test on penetrability in rice (cut leaves soaked in test penetrant, LC-MS/MS of leaf extract); settings: penetration promoter solutions of Examples 1 and 2
# Procedure: (§1) A solution obtained by adding 40 μL (20 mg) of pine oil (manufactured by ease Inc.) to 2000 mL of each of the penetration promoter solutions 1 to 8 was used as a terpene test penetrant.
# (§2) A liquid obtained by dissolving 450 mg of ground nucleic acid particles (manufactured by Kenkououendan Inc.) in 2000 mL of each of the penetration promoter solutions 1 to 8 was used as a nucleic acid test penetrant.
# A liquid obtained by dispersing 100 mg of soybean-derived lecithin (manufactured by FUJIFILM Wako Pure Chemical Corporation) in 2000 mL of each of the penetration promoter solutions 1 to 8 was used as a phospholipid test penetrant. • Penetrability test of each organic substance using test penetrant […]
# (§3) The analysis sample was analyzed for the amount of terpene using an LC-MS/MS apparatus (LC part: DIONEX Ultimate3000, MS/MS part: Q Exactive Focus: manufactured by Thermo Fisher Scientific K.K.) under the following conditions. […] Quantification was performed from the MS-peak area value of α-pinene contained in pine oil (manufactured by ease Inc.), and the amounts of terpene penetrated into the intralobar tissue by the penetration promoter solutions 1 to 8 (Examples 1 and 2 and Comparative Examples 1 to 6) were compared. […]
# [3] = system: soybean (variety: Fukuyutaka) leaves; test: Test on penetrability in soybean (absorbent cotton with test penetrant on leaf, LC-MS/MS of leaf extract); settings: penetration promoter solutions of Examples 1 and 2
# Procedure: as §1, §2
# A liquid obtained by dispersing 100 mg of soybean-derived lecithin (manufactured by FUJIFILM Wako Pure Chemical Corporation) in 2000 mL of each of the penetration promoter solutions 1 to 8 was used as a phospholipid test penetrant. • Penetrability test of each organic substance using test penetrant
# Four soybean (variety: Fukuyutaka) seeds were seeded, per pot, in a No. 3 pot containing Seeding Soil for Vegetables and Flowers (manufactured by Takii Co., Ltd.). […]
# as §3
compound,measurement,setting,value
O=c1ccn([C@@H]2O[C@H](CO)[C@@H](O)[C@H]2O)c(=O)[nH]1 [uridine],octanol/water partition coefficient,[1],−1.98
CC[C@H](C)[C@H](N)C(=O)O [isoleucine],octanol/water partition coefficient,[1],−1.70
N[C@@H](Cc1c[nH]c2ccccc12)C(=O)O [tryptophan],octanol/water partition coefficient,[1],−1.05
CC(C)[C@H](N)C(=O)O [valine],octanol/water partition coefficient,[1],−2.26
Cc1cn([C@H]2C[C@H](O)[C@@H](COP(=O)(O)O)O2)c(=O)[nH]c1=O [thymidine monophosphate],octanol/water partition coefficient,[1],−2.8
N[C@@H](Cc1ccccc1)C(=O)O [phenylalanine],octanol/water partition coefficient,[1],−1.38
N[C@@H](CO)C(=O)O [serine],octanol/water partition coefficient,[1],−3.07
C[C@H](N)C(=O)O [alanine],octanol/water partition coefficient,[1],−2.85
N[C@@H](Cc1c[nH]cn1)C(=O)O [histidine],octanol/water partition coefficient,[1],−3.32
CCCCCCCC/C=C\CCCCCCCC(=O)O [oleic acid],penetrability with oleic acid as compared with terpene,[2],slightly decreased
same,penetrability with oleic acid as compared with terpene,[3],slightly decreased
same,octanol/water partition coefficient,[1],7.73
Cc1c[nH]c(=O)[nH]c1=O [thymine],octanol/water partition coefficient,[1],−0.62
Nc1nc2nc[nH]c2c(=O)[nH]1 [guanine],octanol/water partition coefficient,[1],−0.91
CC(C)C[C@H](N)C(=O)O [leucine],octanol/water partition coefficient,[1],−1.52
O=C(O)[C@@H]1CCCN1 [proline],octanol/water partition coefficient,[1],−2.54
Nc1ncnc2c1ncn2[C@@H]1O[C@H](COP(=O)(O)O)[C@@H](O)[C@H]1O [adenosine monophosphate],octanol/water partition coefficient,[1],−3.1
NCCCC[C@H](N)C(=O)O [lysine],octanol/water partition coefficient,[1],−3.05
Cc1cn([C@H]2C[C@H](O)[C@@H](CO)O2)c(=O)[nH]c1=O [thymidine],octanol/water partition coefficient,[1],−0.93
Nc1cc[nH]c(=O)n1 [cytosine],octanol/water partition coefficient,[1],−1.73
N[C@@H](CCC(=O)O)C(=O)O [glutamic acid],octanol/water partition coefficient,[1],−3.69
Nc1ncnc2c1ncn2[C@@H]1O[C@H](CO)[C@@H](O)[C@H]1O [adenosine],octanol/water partition coefficient,[1],−1.2
NC(=O)CC[C@H](N)C(=O)O [glutamine],octanol/water partition coefficient,[1],−3.64
Nc1nc2c(ncn2[C@@H]2O[C@H](CO)[C@@H](O)[C@H]2O)c(=O)[nH]1 [guanosine],octanol/water partition coefficient,[1],−1.9
Nc1ncnc2nc[nH]c12 [adenine],octanol/water partition coefficient,[1],−0.1
N[C@@H](CS)C(=O)O [cysteine],octanol/water partition coefficient,[1],−2.49
CSCC[C@H](N)C(=O)O [methionine],octanol/water partition coefficient,[1],−1.87
